Test results as given in ChEMBL document CHEMBL1153171, “Coumarins as novel 17beta-hydroxysteroid dehydrogenase type 3 inhibitors for potential treatment of prostate cancer” (Bioorg Med Chem Lett, 2010).

Key:
[1] = target: T1, 17-beta-hydroxysteroid dehydrogenase type 3 (Homo sapiens, UniProt P37058); assay: Inhibition of human 17beta-HSD3 expressed in HeLa cells; assay type: cell-based
T1 sequence (P37058 whole entry): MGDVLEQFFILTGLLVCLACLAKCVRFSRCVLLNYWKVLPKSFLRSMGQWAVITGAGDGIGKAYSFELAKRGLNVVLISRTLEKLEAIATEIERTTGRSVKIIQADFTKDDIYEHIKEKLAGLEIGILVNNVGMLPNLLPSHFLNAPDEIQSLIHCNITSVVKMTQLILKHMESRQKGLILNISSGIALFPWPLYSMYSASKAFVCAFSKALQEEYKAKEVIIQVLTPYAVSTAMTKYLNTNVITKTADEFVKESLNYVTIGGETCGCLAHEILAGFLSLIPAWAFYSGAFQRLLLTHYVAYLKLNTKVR

Estrogen receptor [2] = target: T2, Estrogen receptor (Homo sapiens, UniProt P03372); assay: Agonist activity at ER by reporter gene assay; assay type: functional
T2 sequence (P03372 whole entry): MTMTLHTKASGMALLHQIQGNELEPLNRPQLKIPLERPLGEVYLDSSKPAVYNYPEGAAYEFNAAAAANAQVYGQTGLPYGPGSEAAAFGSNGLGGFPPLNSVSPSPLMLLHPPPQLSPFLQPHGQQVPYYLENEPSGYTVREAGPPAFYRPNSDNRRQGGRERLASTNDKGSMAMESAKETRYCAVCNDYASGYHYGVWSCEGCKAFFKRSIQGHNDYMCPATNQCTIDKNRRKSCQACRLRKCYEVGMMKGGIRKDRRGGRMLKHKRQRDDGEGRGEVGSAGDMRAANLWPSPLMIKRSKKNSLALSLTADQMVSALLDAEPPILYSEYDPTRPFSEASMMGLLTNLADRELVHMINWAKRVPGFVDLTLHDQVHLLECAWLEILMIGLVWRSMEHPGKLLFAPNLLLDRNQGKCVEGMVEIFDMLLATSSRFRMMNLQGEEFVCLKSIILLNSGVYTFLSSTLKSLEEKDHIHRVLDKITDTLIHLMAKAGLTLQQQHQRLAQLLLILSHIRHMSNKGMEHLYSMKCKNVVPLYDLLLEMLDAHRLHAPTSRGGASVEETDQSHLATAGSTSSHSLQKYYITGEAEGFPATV

Estrogen receptor [3] = target: T2, Estrogen receptor; assay: Antagonist activity at ER by reporter gene assay; assay type: functional
Glucocorticoid receptor [4] = target: T3, Glucocorticoid receptor (Homo sapiens, UniProt P04150); assay: Antagonist activity at GR by reporter gene assay; assay type: functional
T3 sequence (P04150 whole entry): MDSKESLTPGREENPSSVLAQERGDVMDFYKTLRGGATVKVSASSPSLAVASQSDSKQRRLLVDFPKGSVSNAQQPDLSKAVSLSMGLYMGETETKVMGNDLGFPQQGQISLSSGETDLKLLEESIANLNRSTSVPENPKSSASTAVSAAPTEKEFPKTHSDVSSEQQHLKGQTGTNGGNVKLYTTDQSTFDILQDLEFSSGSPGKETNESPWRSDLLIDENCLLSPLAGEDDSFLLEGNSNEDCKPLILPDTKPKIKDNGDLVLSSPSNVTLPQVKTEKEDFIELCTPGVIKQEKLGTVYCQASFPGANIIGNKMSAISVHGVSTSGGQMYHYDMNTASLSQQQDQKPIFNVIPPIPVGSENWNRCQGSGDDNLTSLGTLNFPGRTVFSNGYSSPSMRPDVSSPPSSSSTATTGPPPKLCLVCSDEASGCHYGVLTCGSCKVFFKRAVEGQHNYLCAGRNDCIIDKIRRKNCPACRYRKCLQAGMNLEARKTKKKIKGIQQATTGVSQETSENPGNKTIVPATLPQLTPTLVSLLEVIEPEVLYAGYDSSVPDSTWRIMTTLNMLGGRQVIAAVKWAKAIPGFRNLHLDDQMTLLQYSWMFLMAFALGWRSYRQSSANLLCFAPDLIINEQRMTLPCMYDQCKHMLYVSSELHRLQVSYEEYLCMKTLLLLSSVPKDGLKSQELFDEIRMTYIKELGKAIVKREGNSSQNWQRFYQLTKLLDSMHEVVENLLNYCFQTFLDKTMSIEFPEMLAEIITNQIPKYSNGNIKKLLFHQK

[5] = target: T4, 17-beta-hydroxysteroid dehydrogenase type 2 (Homo sapiens, UniProt P37059); assay: Inhibition of 17beta-HSD2 by human cell based assay
T4 sequence (P37059 whole entry): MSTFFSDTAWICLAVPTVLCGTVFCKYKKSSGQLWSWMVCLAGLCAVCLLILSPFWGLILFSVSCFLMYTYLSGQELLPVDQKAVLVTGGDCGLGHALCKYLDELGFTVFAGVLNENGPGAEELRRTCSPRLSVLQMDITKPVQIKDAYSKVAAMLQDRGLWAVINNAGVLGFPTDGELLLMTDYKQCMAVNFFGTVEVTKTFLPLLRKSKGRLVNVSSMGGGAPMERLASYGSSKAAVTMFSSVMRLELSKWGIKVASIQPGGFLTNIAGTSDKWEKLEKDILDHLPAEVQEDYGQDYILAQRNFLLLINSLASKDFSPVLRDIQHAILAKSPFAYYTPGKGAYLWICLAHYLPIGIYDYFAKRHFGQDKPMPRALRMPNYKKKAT

Androgen receptor [6] = target: T5, Androgen receptor (Homo sapiens, UniProt P10275); assay: Agonist activity at AR by reporter gene assay; assay type: functional
T5 sequence (P10275 whole entry): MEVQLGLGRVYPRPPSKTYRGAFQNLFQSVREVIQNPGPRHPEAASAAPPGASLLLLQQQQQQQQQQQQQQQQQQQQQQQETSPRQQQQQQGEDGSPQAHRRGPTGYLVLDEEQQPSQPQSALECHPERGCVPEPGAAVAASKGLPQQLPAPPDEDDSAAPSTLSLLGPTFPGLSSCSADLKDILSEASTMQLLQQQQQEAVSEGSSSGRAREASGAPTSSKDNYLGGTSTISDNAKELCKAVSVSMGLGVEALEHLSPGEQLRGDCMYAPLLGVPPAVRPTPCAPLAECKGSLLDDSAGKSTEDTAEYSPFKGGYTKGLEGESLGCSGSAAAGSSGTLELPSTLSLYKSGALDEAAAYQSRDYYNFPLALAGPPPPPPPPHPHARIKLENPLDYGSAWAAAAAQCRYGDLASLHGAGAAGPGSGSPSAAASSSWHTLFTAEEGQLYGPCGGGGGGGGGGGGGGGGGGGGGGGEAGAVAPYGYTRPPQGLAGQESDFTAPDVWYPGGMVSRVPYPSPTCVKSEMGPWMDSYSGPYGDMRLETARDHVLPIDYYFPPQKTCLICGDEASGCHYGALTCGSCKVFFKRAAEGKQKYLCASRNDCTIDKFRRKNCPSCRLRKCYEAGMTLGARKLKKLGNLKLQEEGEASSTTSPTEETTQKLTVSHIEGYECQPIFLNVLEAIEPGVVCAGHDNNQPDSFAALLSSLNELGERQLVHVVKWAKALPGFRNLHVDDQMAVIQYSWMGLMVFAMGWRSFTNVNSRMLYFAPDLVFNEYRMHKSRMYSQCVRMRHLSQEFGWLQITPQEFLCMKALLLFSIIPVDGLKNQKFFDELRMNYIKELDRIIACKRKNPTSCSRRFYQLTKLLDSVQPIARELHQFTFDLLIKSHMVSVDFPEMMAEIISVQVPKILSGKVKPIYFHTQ

Androgen receptor [7] = target: T5, Androgen receptor; assay: Antagonist activity at AR by reporter gene assay; assay type: functional
Glucocorticoid receptor [8] = target: T3, Glucocorticoid receptor; assay: Agonist activity at GR by reporter gene assay; assay type: functional
[9] = target: T6, 17-beta-hydroxysteroid dehydrogenase type 1 (Homo sapiens, UniProt P14061); assay: Inhibition of 17beta-HSD1 by human cell based assay
T6 sequence (P14061 whole entry): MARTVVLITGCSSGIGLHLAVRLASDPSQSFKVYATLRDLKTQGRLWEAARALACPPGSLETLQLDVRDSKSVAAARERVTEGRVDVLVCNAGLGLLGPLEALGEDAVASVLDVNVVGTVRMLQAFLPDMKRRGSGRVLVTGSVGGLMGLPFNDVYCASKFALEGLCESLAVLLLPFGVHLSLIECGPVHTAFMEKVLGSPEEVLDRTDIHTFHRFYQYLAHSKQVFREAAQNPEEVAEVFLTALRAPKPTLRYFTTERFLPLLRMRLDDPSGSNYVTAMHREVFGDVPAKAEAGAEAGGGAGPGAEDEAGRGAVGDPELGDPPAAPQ

Row | Compound | IC50 [1] | other results
1 | O=c1cc(CSc2ccncc2)c2ccc(O)cc2o1 | 5000 nM | –
2 | Cc1cccc(OCCc2cc(=O)oc3cc(O)ccc23)n1 | 1000 nM | –
3 | O=c1oc2cc(O)ccc2c(C(F)(F)F)c1CSc1ccccn1 | 320 nM | –
4 | Cc1c(C#N)c(=O)oc2cc(O)ccc12 | 1000 nM | –
5 | O=c1cc(CSc2ncccn2)c2ccc(O)cc2o1 | 1000 nM | –
6 | Cc1c(Cl)c(=O)oc2cc(O)ccc12 | 100 nM | –
7 | O=c1cc(CSc2cccs2)c2ccc(O)cc2o1 | 420 nM | –
8 | O=c1cc(COc2ccccc2)c2ccc(O)cc2o1 | 10000 nM | –
9 | CCc1cc(=O)oc2cc(O)ccc12 | 100 nM | –
10 | COCc1cc(=O)oc2cc(O)ccc12 | 5000 nM | –
11 | Cc1c(C)c2ccc(O)cc2oc1=O | 210 nM | –
12 | O=c1cc(CSc2ccc(C(F)(F)F)cn2)c2ccc(O)cc2o1 | 230 nM | –
13 | CN(Cc1cc(=O)oc2cc(O)ccc12)c1ccccc1 | 6000 nM | –
14 | Cc1c(Cc2ccccc2)c(=O)oc2cc(O)ccc12 | 200 nM | –
15 | O=c1cc(-c2ccccc2)c2ccc(O)cc2o1 | 1000 nM | –
16 | Cc1c(F)c(=O)oc2cc(O)ccc12 | 1000 nM | –
17 | O=c1cc(CNc2ccccc2)c2ccc(O)cc2o1 | 4000 nM | –
18 | Cc1cc(=O)oc2cc(O)ccc12 [HYMECROMONE] | 1000 nM | –
19 | O=c1cc(C(F)(F)F)c2ccc(O)cc2o1 | 190 nM | –
20 | Cc1cc2ccc(O)cc2oc1=O | 1000 nM | –
21 | CCCc1c(C)c2ccc(O)cc2oc1=O | 240 nM | –
22 | O=c1cc(CSc2nncs2)c2ccc(O)cc2o1 | 200 nM | –
23 | O=c1cc(Cc2ccccc2)c2ccc(O)cc2o1 | 10000 nM | –

Now those with a lower IC50 [1], led by results:

Row | IC50 [1] | Compound | other results
24 | 96 nM | O=c1cc(CSC2NCCS2)c2ccc(O)cc2o1 (stereo not given) | –
25 | 93 nM | O=c1cc(CSc2ccccc2)c2ccc(O)cc2o1 | –
26 | 91 nM | Cn1ccnc1SCc1cc(=O)oc2cc(O)ccc12 | –
27 | 88 nM | O=c1cc(CSc2ccc([N+](=O)[O-])cn2)c2ccc(O)cc2o1 | –
28 | 59 nM | CCCc1cc(=O)oc2cc(O)ccc12 | –
29 | 47 nM | Cc1cccc(SCc2c(Cl)c(=O)oc3cc(O)ccc23)n1 | –
30 | 30 nM | O=c1oc2cc(O)ccc2c(C(F)(F)F)c1Cc1ccccc1 | IC50 (Estrogen receptor [2]; read-out: IC50): 1000 nM; IC50 (Estrogen receptor [3]): Not Active; IC50 (Glucocorticoid receptor [4]): Not Active; IC50 [5]: Not Active; IC50 (Androgen receptor [6]): Not Active; IC50 (Androgen receptor [7]; read-out: IC50): 6000 nM; IC50 (Glucocorticoid receptor [8]): Not Active; IC50 [9]: Not Active
31 | 27 nM | Cc1cccc(SCc2c(F)c(=O)oc3cc(O)ccc23)n1 | –
32 | 20 nM | O=c1cc(CCc2ccccc2)c2ccc(O)cc2o1 | –
33 | 10 nM | O=c1cc(CSc2nccs2)c2ccc(O)cc2o1 | –
34 | 8 nM | Cc1cccc(CCc2cc(=O)oc3cc(O)ccc23)n1 | IC50 (Estrogen receptor [2]): Not Active; IC50 (Estrogen receptor [3]): Not Active; IC50 (Glucocorticoid receptor [4]): Not Active; IC50 [5]: Not Active; IC50 (Androgen receptor [6]): Not Active; IC50 (Androgen receptor [7]): Not Active; IC50 (Glucocorticoid receptor [8]): Not Active; IC50 [9]: Not Active
35 | 3 nM | O=c1cc(CSc2ccccn2)c2ccc(O)cc2o1 | –
36 | 1.5 nM | Cc1cccc(SCc2cc(=O)oc3cc(O)ccc23)n1 | IC50 (Estrogen receptor [2]; read-out: IC50): 50000 nM; IC50 (Estrogen receptor [3]): Not Active; IC50 (Glucocorticoid receptor [4]): Not Active; IC50 [5]: Not Active; IC50 (Androgen receptor [6]): Not Active; IC50 (Androgen receptor [7]; read-out: IC50): 50000 nM; IC50 (Glucocorticoid receptor [8]): Not Active; IC50 [9]: Not Active
